# Measurements taken from US20240180880A1, “METHODS OF USING EHMT2 INHIBITORS IN TREATING OR PREVENTING BLOOD DISORDERS” (Epizyme, Inc., priority 2017, published 2024).
# Experiments:
# Assay type in all cases: cell-based
# [1] = test system: Human CD34+ progenitor cells; test: Cell viability in the human CD34+ progenitors HbF induction assay
# Description: (§1) An in-vitro system to test the ability of compound to induce fetal hemoglobin expression was developed. This system used Human CD34+ progenitor cells freshly isolated from healthy donors blood collections. Peripheral blood mononuclear cells (PBMCs) were isolated from whole blood by density gradient centrifugation using SepMatem-50 and Lymphoprep™ from Stem Cell Technologies. CD34^+ hematopoietic progenitor cells (HSPCs) were isolated from PBMCs by magnetic separation using Stem Cells Technologies CD34+ positive selection/isolation kit (Stem Cell Technologies, #18056). CD34 cells were cultured using a 2-phase 14 day culture system. During phase 1 (day 0 to day 7) cells were expanded. […] At day 14 cells were harvested for Fluorescent Activated Cell Sorting (FACS) analysis and for HbF quantitation by Mass spectrometry. […] Data was analyzed using FlowJo software. % HbF^+ cells and ratios H3/H3K9me2 intensities were calculated for CD71^+/CD235a^+ gated populations.
# A list of pharmacological agents was evaluated for their potential to induce fetal Hemoglobin (HbF) in order to identify combination partners for our EHMT1/2 inhibitors. HbF can be induced by toxicity; therefore, the potential of the agents to induce HbF were evaluated in the context of cell viability. […] The EHMT1/2 inhibitor Compound 205 was evaluated in combination with a fixed dose of 10 μM Hydroxyurea and 0.1 μM Pomalidomide. […]
# Various cell lines = test: Cotreatment model (7-day) combination proliferation assay, cellular ATP luminescence, Loewe synergy; conditions: several cell lines, Compound 205 and DNA hypomethylating agents, 7-day cotreatment models (FIG. 1D)
# Experimental: Cells were incubated for seven days under humidified atmosphere of 5% CO2 at 37° C. The final concentration of DMSO (vehicle) in the assay was 0.1% v/v. Quantification of proliferation through measurement of cellular adenosine triphosphate (ATP) was performed via a luminescent cell viability assay. Plates were read in a plate reader with luminescence module. Quantification of synergy was performed using the Loewe Additivity model and calculating the Loewe Volume (V Loewe) with the Chalice Software (Horizon) and dose response curves and IC50 vs concentration plots were generated with Graphpad Prism software.
# [2] = test system: Human CD34+ progenitor cells; test: Human CD34+ progenitors assay, HbF (Hbγ) quantitation by mass spectrometry; conditions: compound 205 with Hydroxyurea, matrix format, CD34+ cells from a pool of 5 healthy donors; Loewe excess in Chalice
# Description: as §1, with “expanded. Expansion was followed by phase 2 (day 7 to day 14) where cells were differentiated toward the erythroid lineage. Compounds were added on day 1 and day 7 as 1000× stock after being diluted in dimethyl sulfoxide (DMSO) in a 3-fold series.” for “expanded.”
# Hydroxyurea was also evaluated as single agent and in combination with the EHMT1/2 inhibitor compound 205 in a matrix format using CD34^+ cells isolated from a pool of 5 healthy donors. […]
# [3] = test system: Human CD34+ progenitor cells; test: Human CD34+ progenitors assay for fetal hemoglobin induction, % HbF+ cells by FACS (healthy donors); conditions: for % HbF+ cells: 26% basal level
# Description: An in-vitro system to test the ability of compound to induce fetal hemoglobin expression was developed. This system used Human CD34+ progenitor cells freshly isolated from healthy donors blood collections. Peripheral blood mononuclear cells (PBMCs) were isolated from whole blood by density gradient centrifugation using SepMatem-50 and Lymphoprep™ from Stem Cell Technologies. CD34^+ hematopoietic progenitor cells (HSPCs) were isolated from PBMCs by magnetic separation using Stem Cells Technologies CD34+ positive selection/isolation kit (Stem Cell Technologies, #18056). CD34 cells were cultured using a 2-phase 14 day culture system. During phase 1 (day 0 to day 7) cells were expanded. Expansion was followed by phase 2 (day 7 to day 14) where cells were differentiated toward the erythroid lineage. Compounds were added on day 1 and day 7 as 1000× stock after being diluted in dimethyl sulfoxide (DMSO) in a 3-fold series. Final DMSO concentration in the assay was 0.1%. At day 14 cells were harvested for Fluorescent Activated Cell Sorting (FACS) analysis and for HbF quantitation by Mass spectrometry. For cell surface and intracellular marker analysis by FACS, cells were fixed and stained with a cocktail of antibodies covering erythroid lineage markers, HbF and H3 and H3K9me2 (Table 11). Data was collected using Canto II flow cytometer (BD Biosciences) and the FACSDiva software. Data was analyzed using FlowJo software. % HbF^+ cells and ratios H3/H3K9me2 intensities were calculated for CD71^+/CD235a^+ gated populations.
# A list of pharmacological agents was evaluated for their potential to induce fetal Hemoglobin (HbF) in order to identify combination partners for our EHMT1/2 inhibitors. HbF can be induced by toxicity; therefore, the potential of the agents to induce HbF were evaluated in the context of cell viability. (Table 12). The EHMT1/2 inhibitor Compound 205 was evaluated in combination with a fixed dose of 10 μM Hydroxyurea and 0.1 μM Pomalidomide. […] 10 μM Hydroxyurea as a single agent was able to induce 01% HbF^+ cells from 26% basal level to 45% while 0.016 μM compound 205 as a single agent induced to 45%. In combination these two agents were able to induced % HbF^+ to 63% (FIG. 3A). […] 0.1 μM Pomalidomide as a single agent was able to induce ° % HbF cells from 26% basal level to 48% while 0.016 μM compound 205 as a single agent induced to 45%. In combination these two agents were able to induce % HbF^+ to 78% (FIG. 3B).
# Hydroxyurea was also evaluated as single agent and in combination with the EHMT1/2 inhibitor compound 205 in a matrix format using CD34^+ cells isolated from a pool of 5 healthy donors. […] (FIG. 4 and FIG. 5, respectively). It is noted that for Loewe excess determination in Chalice, data was normalized to the highest and lowest Hbγ induction observed under the conditions and dose ranges in the assay.
# [4] = 0.016 μM compound 205 in combination with 0.1 μM Pomalidomide
# [5] = 0.016 μM compound 205 in combination with 10 μM Hydroxyurea
compound,measurement,setting,value
CNc1cc(C)nc(Nc2ccc(OC)c(OCCCN3CCCC3)c2)n1 [Compound 205],cell viability,[1]; [4],> 90%
same,cell viability,[1]; [5],> 90%
same,combination effect on proliferation (Loewe),Various cell lines,synergy
same,combination effect on Hbγ protein expression (MS quantification),[2],synergistically
same,% HbF+ cells,[3]; 0.016 μM compound 205 as a single agent,45%
same,% HbF+ cells,[3]; [4],78%
same,% HbF+ cells,[3]; [5],63%
same,combination effect on % HbF+ cells (FACS analysis),"[3]; compound 205 with Hydroxyurea, matrix format, CD34+ cells from a pool of 5 healthy donors",synergistically
